Results on 6 compounds are retold here after patent US20040005294A1, “IGFBP-3 in the diagnosis and treatment of cancer” (priority 2002, published 2004).

For experiment [1], the system named is IGFBP-3 mRNA in H1299 cells. In words: Northern blot of IGFBP-3 expression after demethylating agent. The format is cell-based, human. The conditions noted are these: 5 days, RPMI 1640 with 2% FCS. How it is done:
NSCLC cell lines and H1299 cells treated with 0.1, 1, or 5 μM of 5-aza-dC (Sigma, St. Luois, Mo.) for 5 days in RPMI 1640 medium containing 2% FCS were lysed in 4.0 M guanidinium isothiocyanate, and total cellular RNA was extracted as described previously (Kim et al., 1995). 20 μg of RNA was subjected to electrophoresis on a 1% agarose gel containing 2% formaldehyde. After gels were soaked in 50 mM NaOH/1×standard saline citrate (SSC) for 20 min followed by 10×SSC for 20 min, RNA was transferred onto a Zeta-Probe membrane (Bio-Rad Laboratories, Hercules, Calif.) overnight by the capillary transfer method. Membranes were cross-linked and then incubated in the hybridization solution containing […] IGFBP-3 or glyceraldehyde-3-phosphate dehydrogenase (GAPDH) cDNA as a control. The probe was labeled using a Prime-It® II Random Primer Kit (Stratagene, La Jolla, Calif.) and harvested with MicroSpin™ S-300 HR Columns (Amersham Phamacia Biotech Inc., Piscataway, N.J.). After overnight incubation, membranes were washed in high stringency condition and exposed to enhanced chemiluminescence (ECL) films for autoradiography.

For another experiment, the system named is 1799 cells. In words: MTT proliferation assay, 1799 cells. In kind it is cell-based, human. The conditions noted are these: 2×10^−6 M or 4×10^−6 M, 2 days. The procedure:
To measure the effects of deguelin on cell proliferation, NHBE, 1799, 1198, 1170-1, and HB56B cells were plated at concentrations of 2×10^3 to 4×10^3 cells/well in 96-well plates. The next day, cells were treated with either 0.1% DMSO as a diluent control or various concentrations of deguelin (final DMSO concentration=0.1%). At the end of the assay time period, cell proliferation was measured by the 3-(4,5-dimethylthiazol-2-yl)-2,5-diphenyltetrazolium bromide (MTT) assay as described (Lee et al., 2002). Six replicate wells were used for each analysis, and data from replicate wells are presented as means with 95% confidence intervals (CIs). For some experiments, the drug concentration required to inhibit cell growth by 50% (IC50) was determined by interpolation from dose-response curves. At least three independent experiments were performed.
To determine whether deguelin-induced antiproliferative effects on premalignant HBE cells were mediated through the inhibition of the PI3K/Akt pathway, 2×10^5 1799 cells/well or 1×10 ^6 squamous HBE cells/well in six-well plates were infected with 5×10 ^3 particles/cell of a control virus (Ad5CMV) or with 1×10^3 or 5×10^3 particles/cell of Ad5CMV-MyrAkt-HA, an adenoviral vector that expresses a constitutively active Akt. (MyrAkt) in KSFM. After 1 day of infection, cells were treated with 10^−7M or 10^−6M deguelin, 2×10^−6 M or 4×10^−6M N-(4-hydroxyphenyl)retinamide (4-HPR), or 0.1% DMSO as a control and then incubated for 1 or 2 days. Apoptosis was analyzed using the APO-BrdU staining kit for TUNEL, Western blot analyses for caspase-3, and the cleavage of PARP.
A general note: Tetrazolium assays rely on reduction of a dye to a coloured formazan, in cell work by metabolically active cells.

In experiment [2] the test system is PI3K/Akt pathway in 1799 cells. The experiment can be described thus: Immunoblot of pAkt and pGSK-3β, 1799 cells. In kind it is cell-based, human. Particulars: 2-4 μM. The procedure: Whole cell lysates from 1×10^6 cells were prepared in lysis buffer as described (Lonardo et al., 2002). Equivalent amounts of protein were resolved by sodium dodecyl sulfate (SDS)-polyacrylamide gels (7.5%-12%) and transferred to a nitrocellulose membrane. After the membrane was blocked in Tris-buffered saline (TBS) containing 0.05% Tween 20 (TBST) and 5% (w/v) nonfat powdered milk, the membrane was incubated with primary antibody at the appropriate dilution in TBS-5% nonfat milk at 4° C. for 16 h. The membrane was then washed multiple times with TBST and incubated with the appropriate horseradish peroxidaseconjugated secondary antibody for 1 h at room temperature. The protein-antibody complexes were detected by enhanced chemilurminescence (ECL kit; Amersham, Arlington Heights, Ill.), according to the manufacturer's recommended protocol. […]
(A western blot detects proteins with antibodies after separation by electrophoresis.)

The subject of the next experiment is H1299 cells. The experiment can be described thus: Apoptosis by APO-BRDU staining and flow cytometry. In kind it is cell-based, human. The conditions noted are these: serum-free medium, 100 ng/ml IGF-I, 3 days. The procedure: Apoptosis was measured using the APO-BRDU staining kit (Phoenix Flow Systems, San Diego, Calif.) as previously described (Sueoka et al., 2000). Briefly, H1299 cells were untreated or infected with Ad5CMV or Ad5CMV-BP3, and then allowed to grow in serum-free medium or medium containing 10% serum or 100 ng/ml IGF-I for 3 days. Floating and adherent cells were analyzed using a FACScan flow cytometer (Becton Dickinson, San Jose, Calif.) to determine the percentage of apoptotic cells. The percentage of dead cells was determined by FACS analysis of propidium iodide-stained nuclei. Apoptosis was also determined by detecting of nucleosomal DNA fragmentation, which was measured using the TACS apoptotic DNA laddering kit (Trevigen, Inc., Gaithersburg, Md.) according to the manufacturer's protocol. Briefly, DNA was isolated from untreated or virus-infected H1299 cells by incubating the cells in lysis buffer. DNA samples were then subjected to electrophoresis on a 1.5% agarose gel and visualized by ethidium bromide staining. […] Apoptosis was measured using the APO-BRDU staining kit as described above.

The next experiment concerns NSCLC cell lines. In words: MTT cell growth assay, NSCLC cell lines. The conditions noted are these: serum-free medium, 3 days. The format is cell-based, human. The procedure: To measure the effects of IGF-I and IGF-II on proliferation of NSCLC cells, 2×10^3 NSCLC cell lines were incubated in serum-free medium containing 0.01-500 ng/ml IGF-I or IGF-II for 3 days. To measure the effects of Ad5CMV-BP-3 on proliferation of NHBE and NSCLC cell lines, these cells were seeded at 1×10^−2×10^3 cells/well in 96-well plates. After 1 day, cells were untreated or infected with 1×10^3, 5×10^3, or 1×10^4 particles/cell of Ad5CMV-BP3 or Ad5CMV (parental virus) as a viral control. Infection was allowed to occur for 2 h in the absence of serum, and infected cells were grown in medium containing 100 ng/ml or 250 ng/ml IGF-I. After 3 days of incubation, the growth of infected cells was measured by the 3-(4,5-dimethylthiazol-2-yl)-2,5-diphenyltetrazolium bromide (MTT) assay as previously described (Sueoka et al., 2000).

A further experiment relates to chick embryo CAM. The experiment can be described thus: Chorioallantoic membrane angiogenesis induced by bFGF. The format is in vivo. The conditions noted are these: bFGF 50 ng alone, 72 h; positive eggs/total. The procedure: To assess whether IGFBP-3 is able to inhibit angiogenesis chick embryos were induced with IGFBP3 and dnIGFIR. On day 10, each CAM was exposed to bFGF (50 ng/disk) in the absence or presence of 10^4 particles of Ad5CMV alone, Ad5CMV-IGFBP3, or Ad5CMV-dnIGFIR. After 72 h of incubation, a fat emulsion was injected into the CAM to visualize the blood vessels. CAMs were examined with a microscope to count the positive responsive eggs which have spoke wheel-like vessels. Both IGFBP3 and dnIGFIR inhibited chorioallantoic membrane angiogenesis induced by bFGF FIG. 14. The results are expressed as the percentages of embryos showing activation (FIG. 14A). Positivity for angiogenesis in chick embryos subjected to various conditions was as follows: Collagen alone: 1/5; bFGF (50 ng): 5/5; EV(10^4)+bFGF: 7/8; IGFBP3(10^4)+bFGF: 4/9; dnAKT (10^4)+bFGF: 8/9; dnIGFR (10^4)+bFGF: 4/9; and KP372 (100 nM)+bFGF: 8/9.

A further experiment concerns the target IGF-I (Homo sapiens, UniProt P05019). In words: Western ligand blot of conditioned media. In kind it is binding. The conditions noted are these: conditioned media of Ad5CMV-BP3-infected H1299 cells, [125I]IGF-I probe. How it is done:
Conditioned media were collected from H1299 cells after adenoviral infection. Western blot and Western ligand blot analyses were performed using 30 μg of whole cell lysate or 30 μl of conditioned media as previously described (Sueoka et al., 2000).

IGF-I, sequence (P05019 49-118 limits assumed, species assumed): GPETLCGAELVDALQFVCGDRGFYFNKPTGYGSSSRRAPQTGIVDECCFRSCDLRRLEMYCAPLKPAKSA
IGF-I, sequence (P17936 28-291 partner, species assumed): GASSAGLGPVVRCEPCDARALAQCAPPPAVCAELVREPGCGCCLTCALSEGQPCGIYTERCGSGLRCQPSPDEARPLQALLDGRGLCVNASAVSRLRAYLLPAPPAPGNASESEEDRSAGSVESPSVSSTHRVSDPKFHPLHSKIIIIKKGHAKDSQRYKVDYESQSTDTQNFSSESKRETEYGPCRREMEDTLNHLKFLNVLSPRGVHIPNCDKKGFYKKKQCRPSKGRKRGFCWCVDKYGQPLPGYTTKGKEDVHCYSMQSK

Take `Nc1ncn([C@H]2C[C@H](O)[C@@H](CO)O2)c(=O)n1` [5-aza-dC]: the “concentration reactivating IGFBP-3 expression” value in experiment [1] is “More than 1 μM”.

In the case of `CC1=C(/C=C/C(C)=C/C=C/C(C)=C/C(=O)Nc2ccc(O)cc2)C(C)(C)CCC1` [4-HPR, N-(4-hydroxyphenyl)retinamide, reference compound], the “cell proliferation, control versus constitutively active Akt” value in the experiment on 1799 cells is reported as “no difference in cell proliferation”. For the same compound, the “levels of pAkt and pGSK-3β” value in experiment [2] was “did not alter levels of pAkt and pGSK-3β”.

On to “IGF-I: insulin-like growth factor I, purchased from R&D Systems”, for which the “effect on serum depletion-induced apoptosis” value with H1299 cells is “rescued H1299 cells from serum depletion-induced apoptosis”. In addition, in the experiment on NSCLC cell lines, the “concentration inducing growth of NSCLC cell lines” value was > 10 ng/mL.

Take “IGF-II: IGF-II purchased from R&D Systems”: in the experiment with NSCLC cell lines, the “mitogenic effect on NSCLC cell growth” value is given as “minimal mitogenic effect”.

On to “bFGF: angiogenesis inducer, 50 ng/disk, in the CAM assay”, for which the “positivity for angiogenesis in chick embryos” value with chick embryo CAM is 5/5.

In the case of “IGFBP-3: insulin growth factor binding protein 3 secreted from Ad5CMV-BP3-infected H1299 cells”, the “binding of secreted IGFBP-3 to IGF-I” value in the experiment with IGF-I is “bound strongly”.
